Assay results from patent US12398120B2, “Substituted hydantoinamides as ADAMTS7 antagonists” (BAYER AKTIENGESELLSCHAFT, priority 2019, dated 2025).
pIC50: −log10 of the molar value.

molecular target: ADAMTS4 (Homo sapiens (Human), UniProt O75173); assay: Selectivity assay for ADAMTS-7 modulators: ADAMTS4 (FRET substrate); assay type: biochemical; conditions: ADAMTS4 (R&D 4307-AD) 50 nM, substrate Dabcyl-EEVKAKVQPY-Glu(Edans)-NH2 1 μM, 120 min, 32° C.
Protocol: 1 μl test compound solution (dissolved in DMSO, at the corresponding concentration) or pure DMSO as a control was added per well. The enzymatic reaction was initiated by addition of 25 μl of the respective concentration of the respective FRET substrate (see table 2 below) in reaction buffer.
The increase of fluorescence intensity was measured in appropriate fluorescence plate reader (e.g. TECAN Ultra) using the respective wavelengths for excitation and emission. IC50 values were calculated from percentage of inhibition of enzyme activity as a function of test compound concentration.

Sequence of ADAMTS4 (O75173 213-685): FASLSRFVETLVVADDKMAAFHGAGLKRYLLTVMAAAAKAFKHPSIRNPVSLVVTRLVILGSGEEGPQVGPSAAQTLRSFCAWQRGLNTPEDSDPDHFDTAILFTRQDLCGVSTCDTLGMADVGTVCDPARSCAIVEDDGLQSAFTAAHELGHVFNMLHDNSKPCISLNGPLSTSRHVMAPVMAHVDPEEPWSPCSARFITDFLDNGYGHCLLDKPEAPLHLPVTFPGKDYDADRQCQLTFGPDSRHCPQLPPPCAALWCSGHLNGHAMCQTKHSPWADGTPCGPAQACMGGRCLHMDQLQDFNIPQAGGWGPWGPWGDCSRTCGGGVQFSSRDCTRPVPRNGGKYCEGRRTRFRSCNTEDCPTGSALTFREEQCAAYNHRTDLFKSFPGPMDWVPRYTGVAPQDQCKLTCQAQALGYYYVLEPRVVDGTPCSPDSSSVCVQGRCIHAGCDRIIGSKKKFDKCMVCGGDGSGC

| Structure (SMILES) | pIC50 |
| --- | --- |
| O=C1NC(=O)C(CNC(=O)c2ccccc2-c2ccc(C(F)(F)F)cc2)(c2ncccc2C(F)(F)F)N1 (racemic) [Example 243, Rac-N-({2,5-Dioxo-4-[3-(Trifluoromethyl)Pyridin-2-Yl]Imidazolidin-4-Yl}Methyl)-4′-(Trifluoromethyl)[Biphenyl]-2-Carboxamide] | 4.35 |
| O=C1NC(=O)C(CNC(=O)c2ccc(F)cc2-c2ccc(Cl)cc2)(C2CC(F)(F)C2)N1 (racemic) [Example 245, Rac-4′-Chloro-N-{[4-(3,3-Difluorocyclobutyl)-2,5-Dioxoimidazoidin-4-Yl]Methyl}-5-Fluoro[Biphenyl]-2-Carboxamide] | < 4.30 |
| O=C1NC(=O)C(CNC(=O)c2ccccc2-c2ccc(Cl)cc2)(C2CC(F)(F)C2)N1 (racemic) [Example 246, Rac-4′-Chloro-N-{[4-(3,3-Difluorocyclobutyl)-2,5-Dioxoimidazolidin-4-Yl]Methyl}[Biphenyl]-2-Carboxamide] | < 4.30 |
| O=C1NC(=O)C(CNC(=O)c2ccc(F)cc2-c2ccc(Cl)cc2)(C2(F)CC2)N1 (racemic) [Example 249, Rac-4′-Chloro-5-Fluoro-N-{[4-(1-Fluorocyclopropyl)-2,5-Dioxoimidazolidin-4-Yl]Methyl}[Biphenyl]-2-Carboxamide] | 4.46 |
| O=C1NC(=O)C(CNC(=O)c2ccccc2-c2ccc(Cl)cc2)(C2(F)CC2)N1 (racemic) [Example 250, Rac-4′-Chloro-N-{[4-(1-Fluorocyclopropyl)-2,5-Dioxoimidazolidin-4-Yl]Methyl}[Biphenyl]-2-Carboxamide] | 4.51 |
| O=C1NC(=O)C(CNC(=O)c2ccc(F)cc2-c2ccc(C(F)(F)F)cc2)(C2(F)CC2)N1 (racemic) [Example 252, Rac-5-Fluoro-N-{[4-(1-Fluorocyclopropyl)-2,5-Dioxoimidazolidin-4-Yl]Methyl}-4′-(Trifluoromethyl)[Biphenyl]-2-Carboxamide] | 4.39 |
| O=C1NC(=O)C(CNC(=O)c2ccccc2-c2ccc(C(F)(F)F)cc2)(C2(F)CC2)N1 (racemic) [Example 254, Rac-N-{[4-(1-Fluorocyclopropyl)-2,5-Dioxoimidazolidin-4-Yl]Methyl}-4′-(Trifluoromethyl)[Biphenyl]-2-Carboxamide] | 4.59 |
| O=C1NC(=O)C(CNC(=O)c2ccc(F)c(F)c2-c2ccc(C(F)(F)F)cc2)(C2(F)CC2)N1 (racemic) [Example 256, Rac-5,6-Difluoro-N-{[4-(1-Fluorocyclopropyl)-2,5-Dioxoimidazolidin-4-Yl]Methyl}-4′-(Trifluoromethyl)[Biphenyl]-2-Carboxamide] | 4.55 |
| O=C1NC(=O)C(CNC(=O)c2ccccc2-c2ccc(Cl)cc2)(c2ccnn2C(F)F)N1 (racemic) [Example 258, Rac-4′-Chloro-N-({4-[1-(Difluoromethyl)-1H-Pyrazol-5-Yl]-2,5-Dioxoimidazolidin-4-Yl}Methyl)[Biphenyl]-2-Carboxamide] | 4.92 |
| O=C1NC(=O)C(CNC(=O)c2ccccc2-c2ccc(C(F)(F)F)cc2)(c2ccnn2C(F)F)N1 (racemic) [Example 260, Rac-N-({4-[1-(Difluoromethyl)-1H-Pyrazol-5-Yl]-2,5-Dioxoimidazolidin-4-Yl}Methyl)-4′-(Trifluoromethyl)[Biphenyl]-2-Carboxamide] | 4.77 |
| O=C1NC(=O)C(CNC(=O)c2ccc(F)cc2-c2ccc(C(F)(F)F)cc2)(c2ccnn2C(F)F)N1 (racemic) [Example 262, Rac-N-({4-[1-(Difluoromethyl)-1H-Pyrazol-5-Yl]-2,5-Dioxoimidazolidin-4-Yl}Methyl)-5-Fluoro-4′-(Trifluoromethyl)[Biphenyl]-2-Carboxamide] | 4.72 |
| O=C1NC(=O)C(CNC(=O)c2ccccc2-c2ccc(C(F)(F)F)cc2)(c2ncsc2C(F)(F)F)N1 (racemic) [Example 263, Rac-N-({2,5-Dioxo-4-[5-(Trifluoromethyl)-1,3-Thiazol-4-Yl]Imidazolidin-4-Yl}Methyl)-4′-(Trifluoromethyl)[Biphenyl]-2-Carboxamide] | 4.49 |
| O=C1NC(=O)C(CNC(=O)c2ccc(F)cc2-c2ccc(C(F)(F)F)cc2)(c2ncsc2C(F)(F)F)N1 (racemic) [Example 267, Rac-N-({2,5-Dioxo-4-[5-(Trifluoromethyl)-1,3-Thiazol-4-Yl]Imidazolidin-4-Yl}Methyl)-5-Fluoro-4′-(Trifluoromethyl)[Biphenyl]-2-Carboxamide] | 4.72 |
| Cc1cc(C2(CNC(=O)c3ccc(F)cc3-c3ccc(C(F)(F)F)cc3)NC(=O)NC2=O)n(C)n1 (racemic) [Example 276, Rac-N-{[4-(1,3-Dimethyl-1H-Pyrazol-5-Yl)-2,5-Dioxoimidazolidin-4-Yl]Methyl}-5-Fluoro-4′-(Trifluoromethyl)[Biphenyl]-2-Carboxamide] | 4.82 |
| O=C1NC(=O)C(CNC(=O)c2ccccc2-c2ccc(C(F)(F)F)cc2)(C2(Cl)CC2)N1 (racemic) [Example 279, Rac-N-{[4-(1-Chlorocyclopropyl)-2,5-Dioxoimidazolidin-4-Yl]Methyl}-4′-(Trifluoromethyl)[Biphenyl]-2-Carboxamide] | 4.89 |
| O=C1NC(=O)C(CNC(=O)c2ccccc2-c2ccc(C(F)(F)F)nc2)(C2(Cl)CC2)N1 (racemic) [Example 281, Rac-N-{[4-(1-Chlorocyclopropyl)-2,5-Dioxoimidazolidin-4-Yl]Methyl}-2-[6-(Trifluoromethyl)Pyridin-3-Yl]Benzamide] | 4.59 |
| O=C1NC(=O)C(CNC(=O)c2ccc(F)cc2-c2ccc(C(F)(F)F)cc2)(C2(Cl)CC2)N1 (racemic) [Example 282, Rac-N-{[4-(1-Chlorocyclopropyl)-2,5-Dioxoimidazolidin-4-Yl]Methyl}-5-Fluoro-4′-(Trifluoromethyl)[Biphenyl]-2-Carboxamide] | 4.80 |
| Cn1nc2ccccc2c1C1(CNC(=O)c2ccc(F)cc2-c2ccc(C(F)(F)F)cc2)NC(=O)NC1=O (racemic) [Example 288, Rac-5-Fluoro-N-{[4-(2-Methyl-2H-Indazol-3-Yl)-2,5-Dioxoimidazolidin-4-Yl]Methyl}-4′-(Trifluoromethyl)[Biphenyl]-2-Carboxamide] | 4.68 |

Now those with a higher pIC50, led by results:

| pIC50 | Structure (SMILES) |
| --- | --- |
| 4.96 | O=C1NC(=O)C(CNC(=O)c2ccc(F)cc2-c2ccc(Cl)cc2)(c2ccnn2C(F)F)N1 (racemic) [Example 257, Rac-4′-Chloro-N-({4-[1-(Difluoromethyl)-1H-Pyrazol-5-Yl]-2,5-Dioxoimidazolidin-4-Yl}Methyl)-5-Fluoro[Biphenyl]-2-Carboxamide] |
| 5.04 | O=C1NC(=O)C(CNC(=O)c2cc(F)ccc2-c2ccc(C(F)(F)F)cc2)(c2ncsc2C(F)(F)F)N1 (racemic) [Example 265, Rac-N-({2,5-Dioxo-4-[5-(Trifluoromethyl)-1,3-Thiazol-4-Yl]Imidazolidin-4-Yl}Methyl)-4-Fluoro-4′-(Trifluoromethyl)[Biphenyl]-2-Carboxamide] |
| 5.02 | Cc1nc(C2(CNC(=O)c3ccc(F)cc3-c3ccc(C(F)(F)F)cc3)NC(=O)NC2=O)c(C)s1 (racemic) [Example 269, Rac-N-{[4-(2,5-Dimethyl-1,3-Thiazol-4-Yl)-2,5-Dioxoimidazolidin-4-Yl]Methyl}-5-Fluoro-4′-(Trifluoromethyl)[Biphenyl]-2-Carboxamide] |
| 5.16 | O=C1NC(=O)C(CNC(=O)c2ccccc2-c2ccc(C(F)(F)F)cc2)(c2ncsc2C2CC2)N1 (racemic) [Example 270, Rac-N-{[4-(5-Cyclopropyl-1,3-Thiazol-4-Yl)-2,5-Dioxoimidazolidin-4-Yl]Methyl}-4′-(Trifluoromethyl)[Biphenyl]-2-Carboxamide] |
| 5.11 | O=C1NC(=O)C(CNC(=O)c2ccc(F)cc2-c2ccc(C(F)(F)F)cc2)(c2ncsc2C2CC2)N1 (racemic) [Example 272, Rac-N-{[4-(5-Cyclopropyl-1,3-Thiazol-4-Yl)-2,5-Dioxoimidazolidin-4-Yl]Methyl}-5-Fluoro-4′-(Trifluoromethyl)[Biphenyl]-2-Carboxamide] |
| 5.04 | Cc1cc(C2(CNC(=O)c3ccccc3-c3ccc(C(F)(F)F)cc3)NC(=O)NC2=O)n(C)n1 (racemic) [Example 275, Rac-N-{[4-(1,3-Dimethyl-1H-Pyrazol-5-Yl)-2,5-Dioxoimidazolidin-4-Yl]Methyl}-4′-(Trifluoromethyl)[Biphenyl]-2-Carboxamide] |
| 5.20 | Cn1cncc1C1(CNC(=O)c2ccccc2-c2ccc(C(F)(F)F)cc2)NC(=O)NC1=O (racemic) [Example 283, Rac-N-{[4-(1-Methyl-1H-Imidazol-5-Yl)-2,5-Dioxoimidazolidin-4-Yl]Methyl}-4′-(Trifluoromethyl)[Biphenyl]-2-Carboxamide] |
| 5.07 | Cn1cncc1C1(CNC(=O)c2ccc(F)cc2-c2ccc(C(F)(F)F)cc2)NC(=O)NC1=O (racemic) [Example 284, Rac-5-Fluoro-N-{[4-(1-Methyl-1H-Imidazol-5-Yl)-2,5-Dioxoimidazolidin-4-Yl]Methyl}-4′-(Trifluoromethyl)[Biphenyl]-2-Carboxamide] |
| 5.18 | Cn1cncc1C1(CNC(=O)c2ccccc2-c2ccc(C(F)(F)F)nc2)NC(=O)NC1=O (racemic) [Example 285, Rac-N-{[4-(1-Methyl-1H-Imidazol-5-Yl)-2,5-Dioxoimidazolidin-4-Yl]Methyl}-2-[6-(Trifluoromethyl)Pyridin-3-Yl]Benzamide] |
| 5.01 | Cc1ncn(C)c1C1(CNC(=O)c2ccc(F)cc2-c2ccc(C(F)(F)F)cc2)NC(=O)NC1=O (racemic) [Example 286, Rac-N-{[4-(1,4-Dimethyl-1H-Imidazol-5-Yl)-2,5-Dioxoimidazolidin-4-Yl]Methyl}-5-Fluoro-4′-(Trifluoromethyl)[Biphenyl]-2-Carboxamide] |
